The assay addresses human PAD4 (hPAD4) (Homo sapiens, UniProt Q9UM07). The experiment in a line: RFMS human PAD4 functional assay (rapid-fire mass spectrum). It is filed as biochemical. The settings on record: 5 nM hPAD4 enzyme, 250 μM BAEE, 50 μM Calcium; 30 min preincubation, 90 min reaction at 37° C. The gist of the method:
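PAD4 (10 nM) preincubated 30 min with compound (top final 50 μM), then BAEE substrate added in pH 7.5 HEPES buffer with DTT, 50 μM calcium, TPEN; 90 min at 37° C. After TCA quench, citrulline derivatized with phenyl glyoxal (4 mM final, 30 min, 37° C) and quantified by RapidFire MS against internal standard.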

human PAD4 (hPAD4), sequence (Q9UM07 whole entry): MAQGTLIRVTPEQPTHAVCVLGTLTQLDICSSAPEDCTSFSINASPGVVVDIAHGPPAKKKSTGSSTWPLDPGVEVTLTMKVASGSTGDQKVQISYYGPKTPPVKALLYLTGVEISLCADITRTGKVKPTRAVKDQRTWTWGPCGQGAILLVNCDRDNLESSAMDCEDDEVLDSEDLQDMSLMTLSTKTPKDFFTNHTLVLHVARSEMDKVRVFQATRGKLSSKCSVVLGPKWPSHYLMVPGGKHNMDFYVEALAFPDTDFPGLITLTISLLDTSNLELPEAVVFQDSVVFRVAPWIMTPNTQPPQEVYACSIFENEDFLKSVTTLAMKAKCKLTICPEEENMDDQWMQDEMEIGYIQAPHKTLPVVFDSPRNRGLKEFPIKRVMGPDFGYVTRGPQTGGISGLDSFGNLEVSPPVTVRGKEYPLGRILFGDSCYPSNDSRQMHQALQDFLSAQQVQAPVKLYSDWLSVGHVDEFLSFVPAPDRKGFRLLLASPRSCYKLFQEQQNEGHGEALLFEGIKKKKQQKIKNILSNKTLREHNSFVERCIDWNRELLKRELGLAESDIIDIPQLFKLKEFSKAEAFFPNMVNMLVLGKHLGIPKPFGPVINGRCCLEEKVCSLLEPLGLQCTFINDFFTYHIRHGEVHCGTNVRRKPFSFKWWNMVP

`COc1ncc(-n2cc(Cn3c(-c4cc5ccccc5n4CC4CC4)nc4cc(C(=O)N5CC6CCC5[C@@H]6N)cc(OC)c43)cn2)cc1F` (stereo partly drawn) [Example 410, (7R)-2-{2-[1-(cyclopropylmethyl)-1H-indol-2-yl]-1-{[1-(5-fluoro-6-methoxypyridin-3-yl)-1H-pyrazol-4-yl]methyl}-7-methoxy-1H-1,3-benzodiazole-5-carbonyl}-2-azabicyclo[2.2.1]heptan-7-amine]: the IC50 is 87 nM.

For `CCS(=O)(=O)N1CC(n2c(-c3cc4cccnc4n3CC3CC3)nc3cc(C(=O)N4CC5CCC4[C@@H]5N)cc(OC)c32)C1` (stereo partly drawn) [Example 327, (1R,4R.,7R)-2-{2-[1-(cyclopropylmethyl)-1H-pyrrolo[2,3-b]pyridin-2-yl]-1-[1-(ethanesulfonyl)azetidin-3-yl]-7-methoy-1H-1,3-benzodiazole-5-carbonyl}-2-azabicyclo[2.2.1]heptan-7-amine], the half-maximal inhibitory concentration (IC50) worked out at 57 nM.

For the molecule `COc1cc(C(=O)N2C[C@H]3CC[C@@H]2[C@@H]3N)cc2nc(-c3cc4cccnc4n3CC3CC3)n(CC3CN(C(=O)c4ccncc4)C3)c12` [Example 117, (1R,4R,7R)-2-{2-[1-(cyclopropylmethyl)-1H-pyrrolo[2,3-b]pyridin-2-yl]-7-methoxy-1-{[1-(pyridine-4-carbonyl)azetidin-3-yl]methyl}-1H-1,3-benzodiazole-5-carbonyl}-2-azabicyclo[2.2.1]heptan-7-amine], the IC50 stood at 66 nM.

For `COC(=O)N1CC(Cn2c(-c3cc4cccnc4n3CC3CC3)nc3cc(C(=O)N4C[C@H]5CC[C@@H]4[C@@H]5N)cc(OC)c32)C1` [Example 132, methyl 3-({5-[(1R,4R,7R)-7-amino-2-azabicyclo[2.2.1]heptane-2-carbonyl]-2-[1-(cyclopropylmethyl)-1H-pyrrolo[2,3-b]pyridin-2-yl]-7-methoxy-1H-1,3-benzodiazol-1-yl}methyl)azetidine-1-carboxylate], the half-inhibitory concentration (IC50) amounted to 148 nM.

For the molecule `COc1cc(C(=O)N2C[C@H]3CC[C@@H]2[C@@H]3N)cc2nc(-c3cc4cccnc4n3CC3CC3)n(CC3CN(c4nccs4)C3)c12` [Example 47, (1R,4R,7R)-2-{2-[1-(cyclopropylmethyl)-1H-pyrrolo[2,3-b]pyridin-2-yl]-7-methoxy-1-{[1-(1,3-thiazol-2-yl)azetidin-3-yl]methyl}-1H-1,3-benzodiazole-5-carbonyl}-2-azabicyclo[2.2.1]heptan-7-amine], the IC50 was found to be 119 nM.

With `COc1cc(C(=O)N2CC3CCC2[C@@H]3N)cc2nc(-c3cc4ccccc4n3CC3CC3)n(Cc3cnn(-c4cncnc4)c3)c12` (stereo partly drawn) [Example 379, (7R)-2-{2-[1-(cyclopropylmethyl)-1H-indol-2-yl]-7-methoxy-1-{[1-(pyrimidin-5-yl)-1H-pyrazol-4-yl]methyl}-1H-1,3-benzodiazole-5-carbonyl}-2-azabicyclo[2.2.1]heptan-7-amine], the half-maximal inhibitory concentration (IC50) came out at 37 nM.

On to `COc1cc(C(=O)N2CC3CCC2[C@@H]3N)cc2nc(-c3cc4cccnc4n3CC3CC3)n(CC3CN(C(=O)c4ccc(F)cc4)C3)c12` (stereo partly drawn) [Example 447, (7R)-2-{2-[1-(cyclopropylmethyl)-1H-pyrrolo[2,3-b]pyridin-2-yl]-1-{[1-(4-fluorobenzoyl)azetidin-3-yl]methyl}-7-methoxy-1H-1,3-benzodiazole-5-carbonyl}-2-azabicyclo[2.2.1]heptan-7-amine], for which the IC50 is 43 nM.

On to `CCn1cc(Cn2c(-c3cc4ccccc4n3CC3CC3)nc3cc(C(=O)N4CC5CCC4[C@@H]5N)cc(OC)c32)cn1` (stereo partly drawn) [Example 481, (7R)-2-{2-[1-(cyclopropylmethyl)-1H-indol-2-yl]-1-[(1-ethyl-1H-pyrazol-4-yl)methyl]-7-methoxy-1H-1,3-benzodiazole-5-carbonyl}-2-azabicyclo[2.2.1]heptan-7-amine], for which the IC50 turned out to be 20 nM.

Regarding `COc1cc(C(=O)N2CC3CCC2[C@@H]3N)cc2nc(-c3cc4ccccc4n3CC3CC3)n(C[C@H]3CCN(c4ccnc(C#N)n4)C3)c12` (stereo partly drawn) [Example 223, 4-[(3S)-3-({5-[(1R,4R,7R)-7-amino-2-azabicyclo[2.2.1]heptane-2-carbonyl]-2-[1-(cyc1opropylmethyl)-1H-indo1-2-yl]-7-methoxy-1H-1,3-benzodiazo1-1-yl}methyl)pyrrolidin-1-yl]pyrimidine-2-carbonitrile], the IC50 was found to be 18 nM.

On to `COc1cc(C(=O)N2C[C@H](N)C[C@@H](F)C2)cc2nc(-c3cc4ccccc4n3CC3CC3)n(Cc3ccnn3C)c12` [Example 277, (3R,5R)-1-{2-[1-(cyclopropylmethyl)-1H-indol-2-yl]-7-methoxy-1-[(1-methyl-1H-pyrazol-5-yl)methyl]-1H-1,3-benzodiazole-5-carbonyl}-5-fluoropiperidin-3-amine], for which the IC50 was 319 nM.

As for `COc1cc(C(=O)N2CC3CCC2[C@@H]3N)cc2nc(-c3cc4cccnc4n3CC3CC3)n(Cc3ccn(C)n3)c12` (stereo partly drawn) [Example 499, (7R)-2-{2-[1-(cyclopropylmethyl)-1H-pyrrolo[2,3-b]pyridin-2-yl]-7-methoxy-1-[(1-methyl-1H-pyrazol-3-yl)methyl]-1H-1,3-benzodiazole-5-carbonyl}-2-azabicyclo[2.2.1]heptan-7-amine], the half-maximal inhibitory concentration (IC50) stood at 125 nM.

On to `COc1cc(C(=O)N2CC3CCC2[C@@H]3N)cc2nc(-c3cc4cccnc4n3CC3CC3)n(CC3CCN(c4ncccn4)C3)c12` (stereo in doubt) [Example 234, (1R,4R,7R)-2-{2-[1-(cyclopropylmethyl)-1H-pyrrolo[2,3-b]pyridin-2-yl]-7-methoxy-1-{[(3R)-1-(pyrimidin-2-yl)pyrrolidin-3-yl]methyl}-1H-1,3-benzodiazole-5-carbonyl}-2-azabicyclo[2.2.1]heptan-7-amine], for which the concentration for half-maximal inhibition (IC50) worked out at 332 nM.

As to `COc1cc(C(=O)N2C[C@H]3CC[C@@H]2[C@@H]3N)cc2nc(-c3cc4cccnc4n3C)n(C[C@H]3CCN(c4ccnc(C)n4)C3)c12` [Example 213, (1R,4R,7R)-2-(7-methoxy-2-{1-methyl-1H-pyrrolo[2,3-b]pyridin-2-yl}-1-{[(3S)-1-(2-methylpyrimidin-4-yl)pyrrolidin-3-yl]methyl}-1H-1,3-benzodiazole-5-carbonyl)-2-azabicyclo[2.2.1]heptan-7-amine], the half-inhibitory concentration (IC50) worked out at 99 nM.

As to `COc1cc(C(=O)N2CC3CCC2[C@@H]3N)cc2nc(-c3cc4cccnc4n3CC3CC3)n(C3CN(S(=O)(=O)c4ccc(C#N)cc4)C3)c12` (stereo partly drawn) [Example 339, 4-[(3-{5-[(1R,4R,7R)-7-amino-2-azabicyclo[2.2.1]heptane-2-carbonyl]-2-[1-(cyclopropylmethyl)-1H-pyrrolo[2,3-b]pyridin-2-yl]-7-methoxy-1H-1,3-benzodiazo1-1-yl}azetidin-1-yl)sulfonyl]benzonitrile], the IC50 turned out to be 536 nM.

As to `N[C@@H]1C2CCC1N(C(=O)c1ccc3c(c1)nc(-c1cc4cccnc4n1CC1CC1)n3CC1CN(C(=O)c3ccccc3)C1)C2` (stereo partly drawn) [Example 465, (7R)-2-{1-[(1-benozylazetidin-3-yl)methyl]-2-[1-(cyclopropylmethyl)-1H-pyrrolo[2,3-b]pyridin-2-yl]-1H-1,3-benzodiazole-5-carbonyl}-2-azabicyclo[2.2.1]heptan-7-amine], the IC50 came out at 83 nM.

On to `COc1cc(C(=O)N2CC3CCC2[C@@H]3N)cc2nc(-c3cc4cccnc4n3CC3CC3)n(Cc3cnn(-c4cnccn4)c3)c12` (stereo partly drawn) [Example 373, (7R)-2-{2-[1-(cyclopropylmethyl)-1H-pyrrolo[2,3-b]pyridin-2-yl]-7-methoxy-1-{[1-(pyrazin-2-yl)-1H-pyrazol-4-yl]methyl}-1H-1,3-benzodiazole-5-carbonyl}-2-azabicyclo[2.2.1]heptan-7-amine], for which the IC50 came to 34 nM.

(Values after patent US12692254B2, “Benzimidazole inhibitors of PAD enzymes” (BRISTOL-MYERS SQUIBB COMPANY, priority 2018, dated 2026).)
